{"source": "BindingDB's records for doi:10.1021/jm200293r", "about": "(University of Eastern Finland, 2011)", "target": "Diamine acetyltransferase 1 (Mus musculus) (UniProt P48026)", "sequence (P48026 whole entry, looked up)": "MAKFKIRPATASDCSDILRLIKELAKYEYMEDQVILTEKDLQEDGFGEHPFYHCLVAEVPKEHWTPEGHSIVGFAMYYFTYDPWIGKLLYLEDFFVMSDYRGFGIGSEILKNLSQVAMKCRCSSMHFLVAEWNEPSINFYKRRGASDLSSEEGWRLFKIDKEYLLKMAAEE", "experiment": "Competitive inhibition at mouse recombinant SSAT expressed in Escherichia coli strain BL21(DE3)"}
{"smiles": "CC(CCN)NCCCCN", "note": "(stereo unspecified)", "values": [{"measurement": "Ki", "result": 52, "unit": "µM"}]}
